Reference: patent US20250000854A1, “4-(Aminomethyl)-6-(1-Methyl-1H-Pyrazol-4-YL)Isoquinolin-1(2H)-One Derivatives as MTA-Cooperative Inhibitors of PRMT5” (BeiGene, Ltd., priority 2022, published 2025)
Counter-ions that a name gives are not always drawn.

Assays:
[1] = molecular target: T1, human PRMT5/MEP50 enzyme (Homo sapiens (Human), UniProt O14744); experiment: PRMT5 Biochemical Assay (TR-FRET) in the absence of MTA; settings: without MTA; 10 nM PRMT5/MEP50, 3 μM S-adenosylmethionine, histone H4 peptide
Protocol: (§1) The assay measures the methylation activity of purified human PRMT5/MEP50 enzyme toward histone H4-R3. Compounds disclosed herein were tested for inhibition of PRMT5/MEP50 using PRMT5 TR-FRET Assay Kit (BPS Bioscience) which contains a highly specific antibody that recognizes methylated substrates. The assay was carried out in 384-well low volume black plates in a reaction mixture containing 10 nM PRMT5/MEP50 complex, biotinylated histone H4 peptide, 3 μM S-adenosylmethionine and 0-10 μM compound in buffer containing 50 mM Tris-HCl buffer (pH 8.5), 0.005% BSA, 1 mM TCEP and 0.002% Tween-20. The PRMT5/MEP50 enzyme was incubated with compounds disclosed herein and biotinylated histone H4 peptide for 20 minutes at room temperature. The reaction was initiated by addition of S-adenosylmethionine. After reacting at room temperature for 120 minutes, the detection solution containing Eu-labeled antibody and dye-labeled acceptor in detection buffer was added to the reaction mixture. Plates were sealed and incubated at room temperature for 60 minutes, and the TR-FRET signals (excitation 337 nm, emission 665/620 nm) were recorded on a PHERAstar FSX plate reader (BMG Labtech). The inhibition percentage of PRMT5/MEP50 activity in presence of increasing concentrations of compounds was calculated based on the ratio of fluorescence at 665 nm to that at 620 nm. The IC50 value for each compound was derived from fitting the dose-response % inhibition data to the four-parameter logistic model by Dotmatics. And the compounds were tested in the presence and absence of MTA to evaluate whether the compounds display MTA-cooperative activity.

[2] = molecular target: T1, human PRMT5/MEP50 enzyme; experiment: PRMT5 Biochemical Assay (TR-FRET) in the presence of MTA; settings: with 800 nM MTA; 10 nM PRMT5/MEP50, 3 μM S-adenosylmethionine, histone H4 peptide
Protocol: as §1

T1 sequence (O14744 whole entry): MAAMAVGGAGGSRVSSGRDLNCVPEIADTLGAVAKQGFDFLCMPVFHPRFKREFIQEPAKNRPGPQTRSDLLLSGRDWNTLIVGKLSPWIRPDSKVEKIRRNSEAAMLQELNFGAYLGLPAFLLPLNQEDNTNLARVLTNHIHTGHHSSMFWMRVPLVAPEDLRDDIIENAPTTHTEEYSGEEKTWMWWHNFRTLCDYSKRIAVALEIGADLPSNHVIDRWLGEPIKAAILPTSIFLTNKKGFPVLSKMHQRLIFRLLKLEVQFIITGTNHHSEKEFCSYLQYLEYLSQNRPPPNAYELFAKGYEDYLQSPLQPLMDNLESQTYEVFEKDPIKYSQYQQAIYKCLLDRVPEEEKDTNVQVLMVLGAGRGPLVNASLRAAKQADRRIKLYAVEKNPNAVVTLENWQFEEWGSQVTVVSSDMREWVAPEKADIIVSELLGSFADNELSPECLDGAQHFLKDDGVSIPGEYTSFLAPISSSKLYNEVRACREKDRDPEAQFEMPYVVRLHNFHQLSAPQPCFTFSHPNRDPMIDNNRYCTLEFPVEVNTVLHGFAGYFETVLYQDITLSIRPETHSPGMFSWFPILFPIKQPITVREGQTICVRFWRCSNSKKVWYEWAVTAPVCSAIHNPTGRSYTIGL
T1 sequence (Q9BQA1 whole entry partner): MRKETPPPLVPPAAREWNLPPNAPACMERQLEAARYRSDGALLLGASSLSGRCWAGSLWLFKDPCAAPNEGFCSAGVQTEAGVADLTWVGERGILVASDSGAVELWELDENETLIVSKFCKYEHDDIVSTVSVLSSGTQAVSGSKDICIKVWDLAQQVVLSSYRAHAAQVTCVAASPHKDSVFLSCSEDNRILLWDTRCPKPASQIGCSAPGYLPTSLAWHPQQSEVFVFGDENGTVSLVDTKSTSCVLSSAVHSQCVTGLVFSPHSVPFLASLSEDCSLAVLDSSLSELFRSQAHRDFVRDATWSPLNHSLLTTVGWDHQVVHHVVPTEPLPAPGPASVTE

Compound | IC50 [1] | IC50 [2]
Cn1ncc(-c2ccc3c(=O)[nH]cc(CN)c3c2)c1-c1c(F)cc2ccccc2c1C#N [Example 1, 2-(4-(4-(aminomethyl)-1-oxo-1,2-dihydroisoquinolin-6-yl)-1-methyl-1H-pyrazol-5-yl)-3-fluoro-1-naphthonitrile] | 29 nM | 3.2 nM
Cn1ncc(-c2ccc3c(=O)[nH]cc(CN)c3c2)c1-c1cc(Cl)cc(OC2CC2)c1C#N [Example 2, 2-(4-(4-(aminomethyl)-1-oxo-1,2-dihydroisoquinolin-6-yl)-1-methyl-1H-pyrazol-5-yl)-4-chloro-6-cyclopropoxybenzonitrile hydrochloride] | 77 nM | 3.3 nM
Cn1ncc(-c2ccc3c(=O)[nH]cc(CN)c3c2)c1-c1cc(Cl)c2ccccc2c1C#N [Example 5, 2-(4-(4-(aminomethyl)-1-oxo-1,2-dihydroisoquinolin-6-yl)-1-methyl-1H-pyrazol-5-yl)-4-chloro-1-naphthonitrile hydrochloride] | 27 nM | 2.7 nM
Cn1ncc(-c2ccc3c(=O)[nH]cc(CN)c3c2)c1-c1cc(C(F)(F)F)cc(OC2CC2)c1C#N [Example 7, 2-(4-(4-(aminomethyl)-1-oxo-1,2-dihydroisoquinolin-6-yl)-1-methyl-1H-pyrazol-5-yl)-6-cyclopropoxy-4-(trifluoromethyl)benzonitrile hydrochloride] | 165 nM | 6.2 nM

The remaining compounds from weak to strong by IC50 [1], led by results:

IC50 [1] | IC50 [2] | Compound
87 nM | 3.5 nM | Cn1ncc(-c2ccc3c(=O)[nH]cc(CN)c3c2)c1-c1cccc(OC2CC2)c1C#N [Example 6, 2-(4-(4-(aminomethyl)-1-oxo-1,2-dihydroisoquinolin-6-yl)-1-methyl-1H-pyrazol-5-yl)-6-cyclopropoxybenzonitrile hydrochloride]
68 nM | 7.6 nM | Cn1ncc(-c2ccc3c(=O)[nH]cc(CN)c3c2)c1-c1c(F)c(Cl)cc(OC2CC2)c1C#N [Example 3, 2-(4-(4-(aminomethyl)-1-oxo-1,2-dihydroisoquinolin-6-yl)-1-methyl-1H-pyrazol-5-yl)-4-chloro-6-cyclopropoxy-3-fluorobenzonitrile hydrochloride]
29 nM | 2.7 nM | Cc1cc(-c2c(-c3ccc4c(=O)[nH]cc(CN)c4c3)cnn2C)c(C#N)c2ccccc12 [Example 4, 2-(4-(4-(aminomethyl)-1-oxo-1,2-dihydroisoquinolin-6-yl)-1-methyl-1H-pyrazol-5-yl)-4-methyl-1-naphthonitrile hydrochloride]
